Consider three compounds from patent US7662767B2, “Polynucleotide intercalator interceptors and inhibitors” (Materials Evolution and Development USA, Inc., priority 2000, dated 2010).

Entries after “also recorded” stand apart in the source; their conditions may differ.

The nature of test [1]: Acridine orange self-association (AO-AO dimer), absorbance. The format is binding. Here is the method:
Association constants were calculated using a modification of an equation described by Zaini et al. (1999) to determine equilibrium constants for weakly bound complexes by absorbance spectrophotometry. By definition K=Xd/(Xm* Xm), where K is the binding constant Kassoc, Xd is the concentration of the AO dimer and Xm is the concentration of the AO monomer. Conservation of mass gives Xt=Xm+2*Xd, where Xt is the total concentration of AO in solution. Rearranging the conservation of mass equation gives Xm=Xt−2*Xd, and substituting into the equation for Kassoc and rearranging gives Equation 4: Kassoc(Xt*Xt−4*Xt*Xd+4*Xd*Xd)−Xd=0 EQUATION 4:
Rearranging gives: Xd*Xd−(Xt+1/(4*.Kassoc)*Xd+Xt*Xt/4=0 EQUATION5:
Applying the quadratic formula (X=[−B±SQRT(B^2−4AC]/2A) to Equation 3-5 and taking a physically reasonable root gives Equation 3-6: Xd=[Xt+1/(4*K)−SQRT(Xt/(2*K)+1/[…])]/2 EQUATION 6:
Where SQRT ( ) indicates taking the square root of the content of the parentheses. The fluorescence values at λem 530 nm (F530) is a function of Xt and F530=Xd*ε, where “ε” is the fluorescence yield of the dimer. The equation was solved by non-linear least squares using Prism™ software and binding constants determined. […] Fluorescence values (fi) are reported as raw data normalized to scale and not adjusted by a dilution factor following aliquot additions. Absorbance data taken at 468 nm was also used to calculate the Kassoc for the AO-AO dimer using Equation 6.
In the example shown in FIG. 3-1A, absorbance was scanned between 400 nm and 550 nm over a range of AO concentrations from 2.5 μM to 20 μM in a 5 mM solution of HEPES buffer at pH 7.0. […] Note that the absorbance at 492 nm (A492) is indicative of the concentration of the AO monomer, whereas the absorbance at 468 nm (A468) is indicative of the concentration of the AO-AO dimer (Kapuscinski and Kimmel, 1993). […]
The absorbance was scanned between 410 nm and 540 nm over a range of AO concentrations from 10 μM-45 μM in a 5 mM solution of […] buffer at pH 7.0 in the presence of 150 mM of NaCl. […]

In test [2] the test system is chicken erythrocyte nuclear chromatin. Briefly: Quantified removal of intercalated AO from chicken erythrocyte smears, fluorescence plate reader. The note with it: 100 mM xanthine, static, 10 seconds to two hours, AO 1 mM 10 sec stain, λex 485 nm, λem 530 nm. As to the method:
Microscope slides (slides) coated with chicken erythrocytes were stained by placing the slide into a 50 ml beaker filled with a 1 mM solution of AO prepared in distilled water for approximately 10 seconds (static) followed by three successive 10 second rinses in distilled water before drying at room temperature. Care was taken to store all slides in the dark when not in use to avoid photobleaching. Stained slides were dried prior to being exposed to 50 ml of a 100 mM solution of either CAF or aminophylline (AM) for set time periods under static conditions. Exposure to the xanthine solution was followed by three 10-second rinses with distilled water and drying of the slides in the dark prior to fluorescence analysis. Control slides consisted of erythrocyte coated slides that were subsequently placed in only distilled water (no stain) prior to drying, blank slides (no erythrocytes) placed in AO staining solutions then dried served as negative controls, and erythrocyte coated cells stained with AO but exposed to only distilled water and not a xanthine solution served as positive control. The stained microscope slides were then attached by tape to a plastic frame (upside down 96-well plate cover) and fluorescence determined using a Perkin-Elmer Model HTS 7000 Bio Assay Reader with λex 485nm and λem 530 with the gain set at 40.
Distilled water served as solvent control (n=8).

Test [3] has the same test system. Briefly: Removal of acridine orange from stained chicken erythrocyte nuclear chromatin by xanthine rinse, fluorescence microscopy. The note with it: for Nuclear color, Stain: before xanthine rinse; for Nuclear color, Re-stain: re-stained after xanthine rinse; for Nuclear color, After Rinse: xanthine rinse 50 mM, 1 hour, static. As to the method:
Experiments were conducted to determine whether xanthines with known binding affinities to AO could compete with nuclear DNA for binding to AO and, therefore, be able to remove AO from its intercalation position within nuclear chromatin. Fluorescence microscopy was used to observe the fluorescent color produced by the AO-DNA complex following the staining of chicken erythrocyte nuclear chromatin with AO at both 5 μM and 5 mM.
Microscope slides smeared with chicken erythrocytes were stained with either 5 μM or 5 mM AO for a period of 30 minutes followed by three 10 second rinses in distilled water before drying at room temperature. Slides were then examined by fluorescence microscopy using a, Zeiss Model 63 Microscope with a xenon source fluorescent emitter. In some instances, a blocking filter was used to filter out fluorescence emission in the red and higher wavelengths. Photomicrographs were taken with Kodak Gold 35 mm ASA 1600 speed film, developed and color prints made. Comparative photomicrographs were taken at the same magnification and at the same exposure time. Selected photomicrographs were digitally scanned (Hewitt-Packard, Model 4L Scanner, Palo Alto, Calif.) and stored on 100 MB ZIP cartridges.
Slides were again examined by fluorescence microscopy and fluorescence color of the nuclei recorded. Slides were again stained with 5 mM AO then re-examined by fluorescence microscopy and fluorescence color of the nuclei recorded.
In the example shown in Table 4-3, the chicken erythrocytes were smeared and dried on a microscope slide prior to exposure to the AO solution for 30 minutes followed by water rinses to remove excess AO. Following drying, each slide was observed under fluorescence microscopy then placed in one of the xanthine solutions (50 ml volume) for 1 hour under static conditions, rinsed with water, then dried prior to being observed by fluorescence microscopy without a red blocking filter. Finally, each slide was restained following the initial staining procedures and again observed by fluorescence microscopy. Kassoc values are taken from Table 2-1 and are expressed in M^−1.

Test [4] in a line: Absorbance binding spectra of doxorubicin titrated with caffeine or chlorophyllin. The note with it: 10 μM doxorubicin.

In the case of `CN(C)c1ccc2cc3ccc(N(C)C)cc3nc2c1.Cl` [AO, 3,6-bis[dimethylamino]acridine hydrochloride], the “K ± S.D.” value is 47,510 ± 2,420 M^−1 in test [1] (Absorbance plus NaCl, AO [10-45 μM]); 46,840 ± 5,967 M^−1 in test [1] (Absorbance, AO [2.5-20 μM]); 49,530 ± 2,953 M^−1 in test [1] (Absorbance, AO [10-80 μM]).

Turning to `Cn1c(=O)c2[nH]cnc2n(C)c1=O.NCCN` [1,3-dimethyl xanthine ethylenediamine], the “reduction of fluorescence (removal of AO) versus time of exposure” value in test [2] (listed as AM) is given as “followed first order decay kinetics; also recorded: more rapid removal of AO from the nuclear chromatin”. Further, the “effect of xanthine rinse on fluorescence of AO stained nuclear chromatin” value in test [3] (50 mM xanthine rinse) is “removal of most, if not all, green and red color”. Besides, the “Nuclear color, Stain” value is recorded as “Green” in test [3] (AO [5 μM] 30 minutes) and “Red” in test [3] (AO [5 mM] 30 minutes). In addition, the “Nuclear color, Re-stain” value is “Green” in test [3] (AO [5 μM]) and “Red” in test [3] (AO [5 mM]). The “Nuclear color, After Rinse” value in test [3] (AO [5 μM]) and in test [3] (AO [5 mM]) was “None” in each case.

Regarding `Cn1c(=O)c2c(ncn2C)n(C)c1=O` [1,3,7-trimethyl xanthine (caffeine), 1,3,7-trimethyl xanthine], in test [2], the “reduction of fluorescence (removal of AO) versus time of exposure” value is given as “followed first order decay kinetics”. Further, the “Nuclear color, Stain” value is on record as “Green” in test [3] (AO [5 μM] 30 minutes) and “Red” in test [3] (AO [5 mM] 30 minutes). For the same compound, the “Nuclear color, Re-stain” value in test [3] (AO [5 μM]) is given as “Green”; in test [3] (AO [5 mM]) it was “Red”. Moreover, the “Nuclear color, After Rinse” value is on record as “None” in test [3] (AO [5 μM]) and “Red-” in test [3] (AO [5 mM]). For the same compound, in test [4], the “binding to doxorubicin” value is recorded as “binds with doxorubicin”.
